Experimental data from patent US20250161351A1 (priority 2022, published 2025).

Experiments:
Experiment in all cases: cells
[1] = tested on: Nomo-1 cells; conditions: Homo sapiens, NOMO-1, 72 h, read-out: Relative cell viability compared to control
[2] = tested on: HL-60 cells; conditions: Homo sapiens, HL-60, 72 h, read-out: Relative cell viability compared to control
[3] = tested on: patient-derived primary AML cells HD-23; conditions: 72 h, read-out: Relative cell viability compared to control

Q: With `CC1(C)CCC(CN2CCN(c3ccc(C(=O)NS(=O)(=O)c4ccc(NCC5CCOCC5)c([N+](=O)[O-])c4)c(Oc4cnc5[nH]ccc5c4)c3)CC2)=C(c2ccc(Cl)cc2)C1` [Venetoclax, 4-[4-[[2-(4-Chlorophenyl)-4,4-dimethyl-1-cyclohexen-1-yl]methyl]-1-piperazinyl]-N-[[3-nitro-4-[[(tetrahydro-2H-pyran-4-yl)methyl]amino]phenyl]sulfonyl]-2-(1H-pyrrolo[2,3-b]pyridin-5-yloxy)benzamide] as the compound, how does the viability at 0.015625 µM [1] read?
A: 93.8%

Q: What about the viability at 0.03125 µM [1] of the same compound?
A: 90.4%

Q: And the viability at 0.0625 µM [1]?
A: 85.4%

Q: And the viability at 0.125 µM [1]?
A: 79.8%

Q: What about the viability at 0.5 µM [1] of the same compound?
A: 63.6%

Q: What about the viability at 1 µM [1] of the same compound?
A: 55.3%

Q: Which viability at 250 µM [1] does the source give for `C#CCC(N)C(=O)O` (stereo not shown) [PPG, 2-aminopent-4-ynoic acid] here?
A: 97.9%

Q: And the viability at 500 µM [1]?
A: 96.6%

Q: What about the viability at 1000 µM [1] of the same compound?
A: 95.2%

Q: And the viability at 250 µM [2]?
A: 98.7%

Q: And the viability at 500 µM [2]?
A: 98.9%

Q: What about the viability at 1000 µM [2] of the same compound?
A: 97.9%

Q: And the viability at 2000 µM [3]?
A: 92.9%

Q: For `Nc1ncn([C@@H]2O[C@H](CO)[C@@H](O)[C@H]2O)c(=O)n1` [Azacytidine, 4-Amino-1-β-D-ribofuranosyl-1,3,5-(1H)triazin-2-one], which viability at 1.5 µM [1] is on record?
A: 67.1%

Q: How did the viability at 0.5 µM [1] turn out when `O=C(Cc1cccc(OC(F)(F)F)c1)Nc1ccc(CCCCc2nnc(NC(=O)Cc3ccccn3)s2)nn1` [CB-839] was run?
A: 96.1%

Q: And the viability at 1 µM [1]?
A: 98.1%

Q: And the viability at 0.5 µM [2]?
A: 95.1%

Q: And the viability at 1 µM [2]?
A: 92.1%

Q: What about the viability at 1 µM [3] of the same compound?
A: 84.6%
